# Columns and labels:
# [1] = system: Human glioblastoma cell line U-87 MG; assay: Human glioblastoma U-87 MG subcutaneous xenograft in athymic nude mice, tumor volume; assay type: in vivo, female athymic nude mice
# Source text: The cell injection site was marked.
# [2] = Body weight and survival of xenografted mice under ICA-1 treatment
# Procedure: Briefly, nine female athymic nude mice, weighing 17 to 23 grams, were divided into 3 groups: Group 1, mice received human glioblastoma xenografts and were treated with saline controls (n=3); Group 2, mice received human glioblastoma xenografts and were treated with ICA-1 (80 mg/kg/day; 20 μM) immediately after glioma implantation (n=3); Group 3, mice received human glioblastoma xenografts and were treated with ICA-1 (80 mg/kg/day, 20 μM) when the tumor reached 100 mm^3 on day 5 post implantation (n=3).
# Human glioblastoma cell line U-87 MG, a commonly-studied human grade IV glioblastoma-astrocytoma, epithelial-like cell line, was injected subcutaneously into right flank (1×10^6 cells/flank in 0.1 ml PBS) of the mice. The cell injection site was marked. After glioblastoma implantation, ICA-1 (80 mg/kg/day; 20 μM) was subcutaneously injected, daily, into and around the tumor/cell injection area of Groups 2 and 3 mice; Group 1 mice was treated with vehicle. Tumor volume was calculated using the following formula: length×width×width×½.
# [3] = Group 2: ICA-1 80 mg/kg/day daily from implantation
compound,measurement,setting,value
"NC(=O)c1ncn(C2CC(COP(=O)(O)O)C(O)C2O)c1N (stereo not drawn) [ICA-1, 1H-imidazole-4-carboxamide, 5-amino-1-[2,3-dihydroxy-4-[(phosphonooxy)methyl]cyclopentyl]-[1R-(1α, 2β, 3β, 4α)]]",tumor growth,"[1]; Group 2: ICA-1 80 mg/kg/day (20 μM) s.c. daily into and around tumor area, started immediately after glioma implantation",prevented tumor growth
same,tumor growth,"[1]; Group 3: ICA-1 80 mg/kg/day (20 μM) s.c. daily, started when tumor reached 100 mm^3 on day 5 post implantation",prevented tumor growth
same,glioma volume,"[1]; Group 3: ICA-1 80 mg/kg/day, 4 days of treatment (day 5-day 9 post implantation)",reduced glioma volume
same,glioma size after the ICA-1 treatment was terminated,[1]; Group 3: after termination of treatment on day 9 post implantation,continued to reduce
same,glioma size relative to that of the control mice,"[1]; Group 3: end of study period, 8 days after termination of ICA-1 treatment (80 mg/kg/day, day 5-day 9)",53%
same,body weight,[2]; [3],lost significant weight
same,survival / lethality,[2]; [3],died seven days post ICA-1 treatment
same,body weight,[2]; Group 3: ICA-1 80 mg/kg/day for 4 days (day 5-day 9 post implantation),did not exhibit significant weight loss
